Test results as given in patent publication US9931300B2, “Methods for superdisintegrant-based composite particles for dispersion and dissolution of active pharmaceutical agents” (New Jersey Institute of Technology, priority 2012, dated 2018).

Tests used:
[1] = USP II dissolution test of NCMPs in deionized water; type: physicochemical
Method: Dissolution tests were carried out in a standard USP II apparatus with about 50 rpm paddle speed. A sample of NCMPs (n=6) containing about 8.9 mg GF were dissolved in about 1000 ml deionized water at about 37° C., and samples taken from the vessel were syringe-filtered (0.1 μm filter) and assayed via UV spectroscopy. Unlike in the re-dispersion test, the use of a large amount of water ensures substantially full solubilization of the drug in this test.

[2] = cited from earlier work
[3] = Particle size of as-received / dry powders (Rodos/Helos laser diffraction where stated); type: physicochemical; settings: as-received or dry
Method: The particle sizes of GF suspensions after milling in Runs 2, 3, and 5 (about 10% GF/about 2.5% HPC) indicate that the milling results were fairly reproducible. […] The dry particle size of CCS, as measured by Rodos/Helos laser diffraction system, was D10: 12.90 μm, D50: 28.55 μm, and D90: 66.09 The particle size increased to D10:13.74 μm, D50: 63.68 μm and D90: 96.28 μm after about 3 h swelling in de-ionized water as measured by Coulter LS13320 with the liquid module.
The suspensions were coated onto Pharmatose® carrier particles in the fluidized bed processor. The particle size statistics of Pharmatose® as measured by Rodos is D10: 58 μm, D50: 116 μm and D90: 206 μm. The median particle size of Pharmatose® increased from about 116 μm to about 120-150 μm due to coating and some agglomeration.

Row | GF dissolved in about 60 min [1] | particle size D10 of as-received / dry powder [3] [μm] | particle size D50 of as-received / dry powder [3] [μm] | particle size D90 of as-received / dry powder [3] [μm] | Compound | solubility in methanol ([2]; methanol, about 25° C.) | solubility in water ([2]; water)
1 | about 14% | 3.9 | 16.0 | 47.4 | COC1=CC(=O)C[C@@H](C)[C@]12Oc1c(Cl)c(OC)cc(OC)c1C2=O [GF, griseofulvin] | about 30 mg/ml | –
2 | – | – | – | – | OC[C@@H](O)[C@@H](O)[C@H](O)[C@H](O)CO [Mannitol] | – | about 180 g/L
